# From ChEMBL document CHEMBL1201862, “PubChem BioAssay data set” (2004)
#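 1) Cells in 96-well plates. 2) Compound, 48 h, 5 concentrations. 3) Linear interpolation between surrounding doses. 4) Unreached endpoint = highest concentration. At the GI50, growth is halved.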 The source made the active and inactive calls. No stated cut-off is given here; in the data, active = GI50 up to about 1.1 µM and inactive = higher.
# Assays:
# Test in all cases: DTP human tumour cell line panel, 48 h
# EKVX = test system: EKVX
# UO-31 = test system: UO-31
# Hs-578T = test system: Hs-578T
# T47D = test system: T47D
# M14 = test system: M14
# PC-3 = test system: PC-3
# K562 = test system: K562
# 786-0 = test system: 786-0
# SK-MEL-2 = test system: SK-MEL-2
# SF-268 = test system: SF-268
# SNB-19 = test system: SNB-19
# SK-OV-3 = test system: SK-OV-3
# MCF7 = test system: MCF7
# ACHN = test system: ACHN
# SNB-75 = test system: SNB-75
# RXF 393 = test system: RXF 393
# OVCAR-4 = test system: OVCAR-4
# RPMI-8226 = test system: RPMI-8226
# BT-549 = test system: BT-549
# HOP-92 = test system: HOP-92
Structure (SMILES),GI50 (EKVX),GI50 (UO-31),GI50 (Hs-578T),GI50 (T47D),GI50 (M14),GI50 (PC-3),GI50 (K562),GI50 (786-0),GI50 (SK-MEL-2),GI50 (SF-268),GI50 (SNB-19),GI50 (SK-OV-3),GI50 (MCF7),GI50 (ACHN),GI50 (SNB-75),GI50 (RXF 393),GI50 (OVCAR-4),GI50 (RPMI-8226),GI50 (BT-549),GI50 (HOP-92)
O=C1NC(c2cccc3ccccc23)Nc2ccc(Cl)cc21 (stereo not given),0.00235 µM (active),0.00319 µM (active),0.000624 µM (active),20.5 µM (inactive),0.00115 µM (active),0.00165 µM (active),< 0.0001 µM (active),0.00193 µM (active),0.00204 µM (active),0.0035 µM (active),0.00189 µM (active),0.00105 µM (active),0.0741 µM (active),0.00268 µM (active),0.000164 µM (active),0.00394 µM (active),0.327 µM (active),,,
CCc1nc2ccc(C(F)(F)F)cc2[nH]c1=O,44.5 µM (inactive),61.7 µM (inactive),> 100 µM (inactive),,> 100 µM (inactive),> 100 µM (inactive),> 100 µM (inactive),> 100 µM (inactive),> 100 µM (inactive),> 100 µM (inactive),> 100 µM (inactive),> 100 µM (inactive),> 100 µM (inactive),> 100 µM (inactive),89.5 µM (inactive),> 100 µM (inactive),52.2 µM (inactive),> 100 µM (inactive),> 100 µM (inactive),> 100 µM (inactive)
O=C(c1ccccc1)N1C(=S)N(c2ccccn2)C(=N/c2ccccc2)/C1=N\c1ccccc1,24 µM (inactive),9.68 µM (inactive),,15.1 µM (inactive),55.6 µM (inactive),9.84 µM (inactive),7.18 µM (inactive),16.7 µM (inactive),13.6 µM (inactive),24.9 µM (inactive),25.5 µM (inactive),43.6 µM (inactive),60.8 µM (inactive),9.93 µM (inactive),20.5 µM (inactive),5.11 µM (inactive),10.5 µM (inactive),7.91 µM (inactive),,6.67 µM (inactive)
Cc1nc2ccc(Br)cc2c(=O)n1-c1nnc(C(C)(C)C)s1,> 10 µM (inactive),2 µM (inactive),7.46 µM (inactive),> 10 µM (inactive),> 10 µM (inactive),> 10 µM (inactive),> 10 µM (inactive),> 10 µM (inactive),> 10 µM (inactive),> 10 µM (inactive),> 10 µM (inactive),> 10 µM (inactive),> 10 µM (inactive),> 10 µM (inactive),> 10 µM (inactive),> 10 µM (inactive),> 10 µM (inactive),> 10 µM (inactive),,> 10 µM (inactive)
CC(=O)N(C(C)=O)n1c(-c2ccccc2)n[nH]c1=O,> 100 µM (inactive),> 100 µM (inactive),,,> 100 µM (inactive),> 100 µM (inactive),> 100 µM (inactive),> 100 µM (inactive),> 100 µM (inactive),> 100 µM (inactive),> 100 µM (inactive),> 100 µM (inactive),> 100 µM (inactive),> 100 µM (inactive),> 100 µM (inactive),> 100 µM (inactive),> 100 µM (inactive),> 100 µM (inactive),> 100 µM (inactive),> 100 µM (inactive)
COCCNC1CCC(=O)c2[nH]c3ccccc3c21 (stereo not given),27.1 µM (inactive),65.8 µM (inactive),83.9 µM (inactive),,> 100 µM (inactive),> 100 µM (inactive),> 100 µM (inactive),> 100 µM (inactive),> 100 µM (inactive),> 100 µM (inactive),> 100 µM (inactive),,> 100 µM (inactive),> 100 µM (inactive),> 100 µM (inactive),> 100 µM (inactive),> 100 µM (inactive),> 100 µM (inactive),> 100 µM (inactive),> 100 µM (inactive)
Nc1ncnc2c1ncn2CC(OCP(=O)(O)O)Oc1ccccc1 (stereo not given),> 100 µM (inactive),> 100 µM (inactive),> 100 µM (inactive),> 100 µM (inactive),> 100 µM (inactive),> 100 µM (inactive),> 100 µM (inactive),> 100 µM (inactive),> 100 µM (inactive),> 100 µM (inactive),> 100 µM (inactive),> 100 µM (inactive),> 100 µM (inactive),> 100 µM (inactive),> 100 µM (inactive),> 100 µM (inactive),> 100 µM (inactive),> 100 µM (inactive),,> 100 µM (inactive)
CCCc1cc(O)c2c(C)c3[nH]c4ccc(Cl)cc4c3c(C)c2n1,2.44 µM (inactive),1.75 µM (inactive),9.57 µM (inactive),1.85 µM (inactive),3.1 µM (inactive),4.06 µM (inactive),,1.61 µM (inactive),3.57 µM (inactive),6.71 µM (inactive),2.55 µM (inactive),,1.83 µM (inactive),1.91 µM (inactive),2.9 µM (inactive),1.51 µM (inactive),1.86 µM (inactive),,,2.31 µM (inactive)
CCn1ncc2c1nc(-c1ccccc1)c[n+]2[O-],> 100 µM (inactive),62.8 µM (inactive),61.1 µM (inactive),> 100 µM (inactive),77.6 µM (inactive),> 100 µM (inactive),> 100 µM (inactive),> 100 µM (inactive),> 100 µM (inactive),> 100 µM (inactive),> 100 µM (inactive),,46 µM (inactive),> 100 µM (inactive),36.9 µM (inactive),,,> 100 µM (inactive),,
Cc1c(Cc2ccccc2)n(C(C)OCCN(OC(=O)Oc2ccccc2)C(=O)Oc2ccccc2)c(=O)[nH]c1=O (stereo not given),14.4 µM (inactive),14.5 µM (inactive),12.9 µM (inactive),,16.1 µM (inactive),21.9 µM (inactive),26.9 µM (inactive),18.3 µM (inactive),19.7 µM (inactive),14.7 µM (inactive),25.1 µM (inactive),17.4 µM (inactive),23.4 µM (inactive),26.3 µM (inactive),1.61 µM (inactive),15.8 µM (inactive),19.7 µM (inactive),24.2 µM (inactive),17.1 µM (inactive),13.5 µM (inactive)
COc1ccc(/C=C2\N=C3Sc4c([nH]cnc4=O)N3C2=O)cc1,78.9 µM (inactive),> 100 µM (inactive),> 100 µM (inactive),> 100 µM (inactive),> 100 µM (inactive),> 100 µM (inactive),> 100 µM (inactive),> 100 µM (inactive),> 100 µM (inactive),> 100 µM (inactive),> 100 µM (inactive),> 100 µM (inactive),> 100 µM (inactive),> 100 µM (inactive),> 100 µM (inactive),> 100 µM (inactive),> 100 µM (inactive),> 100 µM (inactive),,> 100 µM (inactive)
CN(C)/N=N/c1nc2c(c(=O)n(C)c(=O)n2C)n1CC1CO1 (stereo not given),22.4 µM (inactive),14.5 µM (inactive),,18.4 µM (inactive),15.8 µM (inactive),20.7 µM (inactive),19.2 µM (inactive),16.6 µM (inactive),10.7 µM (inactive),11.6 µM (inactive),19.9 µM (inactive),17.2 µM (inactive),5.38 µM (inactive),10.8 µM (inactive),11.7 µM (inactive),2.88 µM (inactive),15.7 µM (inactive),23.8 µM (inactive),17.1 µM (inactive),
NC[C@H]1Nc2ccccc2[C@@H](O)C1O (stereo not given in full),> 100 µM (inactive),> 100 µM (inactive),> 100 µM (inactive),> 100 µM (inactive),> 100 µM (inactive),> 100 µM (inactive),> 100 µM (inactive),> 100 µM (inactive),> 100 µM (inactive),> 100 µM (inactive),> 100 µM (inactive),> 100 µM (inactive),> 100 µM (inactive),> 100 µM (inactive),> 100 µM (inactive),> 100 µM (inactive),> 100 µM (inactive),> 100 µM (inactive),,> 100 µM (inactive)
COc1ccc(/C=C2\CCCCCC2=O)cc1,> 100 µM (inactive),> 100 µM (inactive),,> 100 µM (inactive),> 100 µM (inactive),> 100 µM (inactive),> 100 µM (inactive),> 100 µM (inactive),> 100 µM (inactive),> 100 µM (inactive),> 100 µM (inactive),> 100 µM (inactive),> 100 µM (inactive),> 100 µM (inactive),,> 100 µM (inactive),> 100 µM (inactive),> 100 µM (inactive),> 100 µM (inactive),> 100 µM (inactive)
O=C(O)c1cc2ccccc2c(/N=N/c2ccc(S(=O)(=O)Nc3nccs3)cc2)c1O,> 100 µM (inactive),> 100 µM (inactive),> 100 µM (inactive),> 100 µM (inactive),> 100 µM (inactive),> 100 µM (inactive),> 100 µM (inactive),> 100 µM (inactive),> 100 µM (inactive),> 100 µM (inactive),,> 100 µM (inactive),> 100 µM (inactive),> 100 µM (inactive),> 100 µM (inactive),> 100 µM (inactive),> 100 µM (inactive),> 100 µM (inactive),,> 100 µM (inactive)
